One assay deals with T1, wild-type TRPM7 (Mus musculus, UniProt Q923J1).
T1 construct: expressed in transfected cells; host or cells: HEK 293T
The experiment in a line: Whole-cell patch-clamp recordings in HEK 293T cells. It counts as cell-based. Particulars: amplitude at +80 mV. The procedure: (§1) Patch-clamp experiments were performed as reported previously, with a few modifications[69],[70]. HEK 293T cells grown in 35-mm dishes to ~60% confluence were transiently transfected with Trpm7 cDNAs in the pIRES2-EGFP vector (2 µg/dish). Patch-clamp experiments were conducted 18–22 h after transfection with cells displaying EGFP fluorescence. Whole-cell currents were recorded using an EPC10 patch-clamp amplifier and PatchMaster software (Version V2x69, Harvard Bioscience). Voltages were corrected for a liquid junction potential of 10 mV. Currents were elicited by voltage ramps from –100 mV to +100 mV over 50 ms acquired at 0.5 Hz. The inward and outward current amplitudes were measured at –80 mV and +80 mV and were normalized to the cell size as pA/pF. The capacitance was measured using the automated capacitance cancellation function of EPC10. The standard extracellular solution contained 140 mM NaCl, 2.8 mM KCl, 1 mM CaCl2, 2 mM MgCl2, 10 mM HEPES-NaOH, and 11 mM glucose (all from Sigma-Aldrich). Solutions were adjusted to pH 7.2 using an FE20 pH meter (Mettler Toledo) and to 290 mOsm using a Vapro 5520 osmometer (Wescor Inc). […] For the experiment with naltriben, the intracellular solution contained 120 mM Cs-glutamate, 8 mM NaCl, 10 mM Cs-EGTA, 1.5 mM MgCl2, and 10 mM HEPES-CsOH. The intracellular solution was also adjusted to pH 7.2 and 290 mOsm. Data are presented as the mean ± SEM Unless indicated otherwise, data were compared by unpaired t-test (GraphPad Prism 8.4.0). For multiple comparisons, ordinary one-way ANOVA (GraphPad Prism 8.4.0) was used. Significance was accepted at P ≤ 0.05.

The target in assay [1] is T2, purified TRPM7 reconstituted in lipid bilayers (Mus musculus, UniProt Q923J1).
T2 construct: truncated C-terminally (the corresponding protein residues 1–1280); GFP (N); thrombin cleavage site (LVPRG) (N); made in house; host or cells: HEK 293S GnTI- cells (BacMam baculovirus made in Sf9)
T2 sequence (Q923J1 1-1280): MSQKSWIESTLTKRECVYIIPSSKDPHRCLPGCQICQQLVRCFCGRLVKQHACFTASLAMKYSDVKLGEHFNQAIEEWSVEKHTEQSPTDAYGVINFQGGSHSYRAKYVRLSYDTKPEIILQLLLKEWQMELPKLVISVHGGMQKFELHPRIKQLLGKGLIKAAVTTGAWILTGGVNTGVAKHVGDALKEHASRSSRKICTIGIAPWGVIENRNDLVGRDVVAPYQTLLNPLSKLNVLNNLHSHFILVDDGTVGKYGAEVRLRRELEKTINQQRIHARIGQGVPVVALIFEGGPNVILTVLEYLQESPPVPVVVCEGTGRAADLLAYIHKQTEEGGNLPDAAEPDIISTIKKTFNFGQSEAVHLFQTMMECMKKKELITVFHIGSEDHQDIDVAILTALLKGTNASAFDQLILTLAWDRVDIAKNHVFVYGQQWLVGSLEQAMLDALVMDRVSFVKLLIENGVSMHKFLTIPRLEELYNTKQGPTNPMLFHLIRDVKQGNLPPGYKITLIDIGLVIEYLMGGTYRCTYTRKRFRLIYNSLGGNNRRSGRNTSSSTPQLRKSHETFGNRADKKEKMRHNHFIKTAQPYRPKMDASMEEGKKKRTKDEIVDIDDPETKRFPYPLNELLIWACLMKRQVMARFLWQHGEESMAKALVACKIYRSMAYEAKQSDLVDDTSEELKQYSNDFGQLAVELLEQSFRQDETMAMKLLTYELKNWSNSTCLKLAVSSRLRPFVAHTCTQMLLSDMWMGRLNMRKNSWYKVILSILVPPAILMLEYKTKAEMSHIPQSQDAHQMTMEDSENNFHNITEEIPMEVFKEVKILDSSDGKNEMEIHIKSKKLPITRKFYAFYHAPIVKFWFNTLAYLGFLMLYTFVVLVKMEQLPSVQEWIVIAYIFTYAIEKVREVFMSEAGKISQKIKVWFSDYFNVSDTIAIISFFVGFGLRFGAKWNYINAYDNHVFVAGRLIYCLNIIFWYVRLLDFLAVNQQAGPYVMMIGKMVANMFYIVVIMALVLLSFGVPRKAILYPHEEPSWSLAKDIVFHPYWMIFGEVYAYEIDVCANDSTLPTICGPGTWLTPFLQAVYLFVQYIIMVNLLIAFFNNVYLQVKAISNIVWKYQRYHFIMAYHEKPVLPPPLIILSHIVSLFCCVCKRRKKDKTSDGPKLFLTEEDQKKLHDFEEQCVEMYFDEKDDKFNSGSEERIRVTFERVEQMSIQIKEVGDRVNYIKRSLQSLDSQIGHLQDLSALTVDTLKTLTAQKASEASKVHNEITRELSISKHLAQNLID
The assay can be described thus: Planar lipid bilayer single-channel recordings. It counts as biochemical. Particulars: 2.5 μM NTB, membrane potential –100 mV, n = 3; Po without agonist 0.02 ± 0.01. The method, then: Planar lipid bilayers measurements were performed as described previously. Briefly, planar lipid bilayers were formed from a 30 mM solution of synthetic lipid mix POPC:POPE:POPG at a 3:1:1 ratio (Anatrace, P516:P416:P616) in n-decane (Sigma-Aldrich). The solution was used to paint a bilayer in an aperture of ∼150 µm diameter in a Meca chip (Nanion). Each cavity in the chip contained an individual integrated Ag/AgCl-microelectrode. The bathing solution contained 150 mM KCl, 0.02 mM MgCl2, 1 µM CaCl2 and 20 mM HEPES (pH 7.2). All the reagents (Sigma-Aldrich) were ultrapure (>99%). The bilayer capacitance was in the range of 5–10 pF.
The purified protein (10 ng/ml) was added to the bilayer-forming lipid mix (1 volume of protein to 1 volume of the lipid mix) and incubated for 30 min at 30 °C. […] Only after the incubated protein-lipid mix was added by painting, the unitary currents were recorded using an Orbit mini device (Nanion) controlled by the pCLAMP 10.2 software (Molecular Devices). Data were low-pass filtered at […] and digitized at 1.22 kHz. Single-channel conductance events, all-points histograms, and other parameters were identified and analyzed using the Clampfit 10.3 software (Molecular Devices). Only recordings with one channel incorporated into the lipid bilayer were subjected to single-channel analysis. […]

The target in a further assay is T3, TRPM7-L671A (Mus musculus, UniProt Q923J1, L671A).
T3 construct: expressed in transfected cells; host or cells: HEK 293T
The experiment in a line: Whole-cell patch-clamp recordings in HEK 293T cells. The class given is cell-based. The conditions noted are these: 50 and 100 μM NTB. The method, then: as §1
In general terms: Patch clamp records ionic current or voltage across a cell membrane.

The target in another assay is T4, TRPM7-N752K (Mus musculus, UniProt Q923J1, N752K).
T4 construct: expressed in transfected cells; host or cells: HEK 293T
The description is as above. The class given is cell-based. The conditions noted are these: 50 and 100 μM NTB. The procedure:
as §1

T1 sequence (Q923J1 whole entry): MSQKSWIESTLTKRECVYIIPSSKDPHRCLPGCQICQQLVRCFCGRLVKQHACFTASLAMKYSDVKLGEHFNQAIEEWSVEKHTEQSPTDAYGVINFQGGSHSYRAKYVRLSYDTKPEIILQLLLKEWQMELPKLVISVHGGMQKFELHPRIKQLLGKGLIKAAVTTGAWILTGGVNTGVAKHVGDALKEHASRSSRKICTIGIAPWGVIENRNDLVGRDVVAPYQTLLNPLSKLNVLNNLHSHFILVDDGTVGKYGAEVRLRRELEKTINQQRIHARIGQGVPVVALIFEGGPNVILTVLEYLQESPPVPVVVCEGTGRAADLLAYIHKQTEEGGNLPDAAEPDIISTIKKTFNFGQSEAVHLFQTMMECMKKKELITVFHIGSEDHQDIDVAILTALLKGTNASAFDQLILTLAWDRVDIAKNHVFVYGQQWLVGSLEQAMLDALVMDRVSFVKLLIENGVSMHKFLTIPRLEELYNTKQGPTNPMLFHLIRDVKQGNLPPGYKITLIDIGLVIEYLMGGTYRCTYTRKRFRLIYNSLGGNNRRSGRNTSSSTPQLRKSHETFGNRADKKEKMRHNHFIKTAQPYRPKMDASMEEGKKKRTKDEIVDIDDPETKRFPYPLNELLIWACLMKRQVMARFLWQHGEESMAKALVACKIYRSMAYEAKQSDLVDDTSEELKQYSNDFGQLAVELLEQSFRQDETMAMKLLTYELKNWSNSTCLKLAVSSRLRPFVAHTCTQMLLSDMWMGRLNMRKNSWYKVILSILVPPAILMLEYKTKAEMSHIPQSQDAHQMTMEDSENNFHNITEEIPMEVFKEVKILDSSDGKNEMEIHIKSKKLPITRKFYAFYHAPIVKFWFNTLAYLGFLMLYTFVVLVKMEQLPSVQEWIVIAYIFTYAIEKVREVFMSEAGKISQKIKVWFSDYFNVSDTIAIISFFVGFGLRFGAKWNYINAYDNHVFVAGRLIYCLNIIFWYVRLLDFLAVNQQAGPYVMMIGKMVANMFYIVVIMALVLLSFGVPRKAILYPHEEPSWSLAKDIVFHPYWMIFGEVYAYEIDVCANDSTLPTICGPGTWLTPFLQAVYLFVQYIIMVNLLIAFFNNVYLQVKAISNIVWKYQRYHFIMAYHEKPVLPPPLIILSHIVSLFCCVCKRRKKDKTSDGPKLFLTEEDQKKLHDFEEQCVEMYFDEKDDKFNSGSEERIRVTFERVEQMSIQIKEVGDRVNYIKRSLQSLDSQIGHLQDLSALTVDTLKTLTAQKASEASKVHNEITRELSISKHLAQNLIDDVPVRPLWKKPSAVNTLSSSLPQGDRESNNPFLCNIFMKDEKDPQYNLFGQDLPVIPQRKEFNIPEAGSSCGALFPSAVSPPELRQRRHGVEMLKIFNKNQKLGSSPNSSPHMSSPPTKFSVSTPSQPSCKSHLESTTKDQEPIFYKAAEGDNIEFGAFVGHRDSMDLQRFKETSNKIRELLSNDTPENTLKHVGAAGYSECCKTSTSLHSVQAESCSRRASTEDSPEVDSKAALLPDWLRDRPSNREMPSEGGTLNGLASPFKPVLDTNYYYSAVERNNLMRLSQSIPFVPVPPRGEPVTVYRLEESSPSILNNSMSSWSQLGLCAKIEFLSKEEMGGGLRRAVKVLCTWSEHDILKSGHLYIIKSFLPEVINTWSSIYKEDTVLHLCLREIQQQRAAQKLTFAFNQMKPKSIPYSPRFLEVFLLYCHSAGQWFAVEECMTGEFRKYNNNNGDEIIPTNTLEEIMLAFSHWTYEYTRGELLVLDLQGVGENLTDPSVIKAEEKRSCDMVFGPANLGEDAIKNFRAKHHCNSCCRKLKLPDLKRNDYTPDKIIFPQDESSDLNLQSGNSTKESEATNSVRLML
T4 sequence (Q923J1 whole entry N752K): as the sequence (Q923J1 whole entry) above, with N752K counted along it
T3 sequence (Q923J1 whole entry L671A): as the sequence (Q923J1 whole entry) above, with L671A counted along it

Take `c1ccc2c(c1)CCC[C@H]2Nc1nc2ccccc2[nH]1` [NS8593]: on wild-type TRPM7 (10 µM inhibitor, 450-s exposure), the “amplitude of TRPM7-mediated currents in the presence of inhibitor” value is recorded as “greatly reduced”.
Take `Oc1ccc2c3c1O[C@H]1c4oc5ccccc5c4C[C@@]4(O)[C@@H](C2)N(CC2CC2)CC[C@]314` [Naltriben, naltriben]: in assay [1], the “open probability, Po” value is listed as 0.44 ± 0.25. The “sensitivity of TRPM7 currents to agonist, mutant vs WT” value at TRPM7-L671A and at TRPM7-N752K was “reduced sensitivity” in each case. Moreover, the “whole-cell currents in the presence of agonist” value at wild-type TRPM7 (500 μM NTB, 170-s application) was “dramatically increased”.

Source of the values: publication PMC10167348, “Structural mechanisms of TRPM7 activation and inhibition” (Nature Communications, 2023).
